Here are results for 27 compounds from patent publication US8440710B2, “HSL inhibitors useful in the treatment of diabetes” (Hoffmann-La Roche Inc., priority 2009, dated 2013).

The term IC50 denotes the point on the concentration scale where inhibition reaches its midpoint.

In this experiment the target is T1, human HSL (Homo sapiens, UniProt Q05469).
T1 construct: generate a full length human HSL ORF with a 3′-His6 tag; made in house; host or cells: High 5 insect cells (baculovirus, pFast-BAC)
T1 sequence (Q05469 1-1076): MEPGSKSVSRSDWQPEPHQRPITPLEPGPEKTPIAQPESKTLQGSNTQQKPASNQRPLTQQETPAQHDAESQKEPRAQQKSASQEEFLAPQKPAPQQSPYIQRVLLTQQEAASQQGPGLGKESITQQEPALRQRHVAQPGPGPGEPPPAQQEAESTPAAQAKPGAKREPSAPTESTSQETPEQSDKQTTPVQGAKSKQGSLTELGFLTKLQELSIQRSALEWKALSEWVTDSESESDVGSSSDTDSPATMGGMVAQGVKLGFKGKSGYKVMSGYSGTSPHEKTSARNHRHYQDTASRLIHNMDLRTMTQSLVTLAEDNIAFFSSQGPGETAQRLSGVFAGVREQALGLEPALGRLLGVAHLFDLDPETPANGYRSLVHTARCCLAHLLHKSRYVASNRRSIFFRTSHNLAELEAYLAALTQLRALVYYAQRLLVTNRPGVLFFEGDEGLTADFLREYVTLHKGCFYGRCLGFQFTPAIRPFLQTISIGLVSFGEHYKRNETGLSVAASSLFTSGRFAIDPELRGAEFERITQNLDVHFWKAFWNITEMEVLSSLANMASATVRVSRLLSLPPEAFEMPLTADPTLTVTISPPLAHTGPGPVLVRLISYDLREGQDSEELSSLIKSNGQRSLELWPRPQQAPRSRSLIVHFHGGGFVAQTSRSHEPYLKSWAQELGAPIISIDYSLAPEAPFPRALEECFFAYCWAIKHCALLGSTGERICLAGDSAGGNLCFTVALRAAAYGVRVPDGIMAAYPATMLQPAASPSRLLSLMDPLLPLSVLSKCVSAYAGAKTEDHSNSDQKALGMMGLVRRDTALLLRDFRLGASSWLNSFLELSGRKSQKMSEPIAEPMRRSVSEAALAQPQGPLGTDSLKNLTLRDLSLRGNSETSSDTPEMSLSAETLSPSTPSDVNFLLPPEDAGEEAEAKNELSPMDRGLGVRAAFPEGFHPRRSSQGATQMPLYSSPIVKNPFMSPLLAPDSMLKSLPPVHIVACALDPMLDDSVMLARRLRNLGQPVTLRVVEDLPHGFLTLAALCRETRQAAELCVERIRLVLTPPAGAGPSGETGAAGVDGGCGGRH
The experiment can be described thus: Human Hormone-Sensitive Lipase (HSL) enzyme inhibition assay (colorimetric, DMPT substrate). Particulars: human full length HSL-His6, 2,3-dimercapto-1-propanol tributyrate substrate, 37° C. 20 minutes, absorbance at 405 nm; read-out: HSL hum IC50. The format is biochemical. A digest of the protocol:
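Full-length human HSL with C-terminal His6, expressed in baculovirus-infected High 5 cells and Ni-NTA purified, was added (15 ug/ml stock) to 1.5 mM DMPT in 100 mM MOPS pH 7.2, 0.2 mg/ml fatty acid-free BSA containing compound. After 20 min at 37 °C, DTNB with SDS/Triton X-100 was added; A405 read after 15 min at RT.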
`O=C(NCc1cnccn1)O[C@H]1CC[C@@]2(CCN(c3ccc(OC(F)(F)F)cc3)C2=O)CC1` [Example 28, (Pyrazin-2-ylmethyl)-carbamic acid [(5α,8β)-1-oxo-2-(4-trifluoromethoxy-phenyl)-2-aza-spiro[4.5]dec-8-yl]ester]: the IC50 came out at 80 nM.

Consider `CCCOC[C@]1(O)CC[C@]2(CCN(c3ccc(O[C@@H](C)C(F)(F)F)nc3)C2=O)CC1` [Example 268, (5α,8α)-8-Hydroxy-8-propoxymethyl-2-[6-((S)-2,2,2-trifluoro-1-methyl-ethoxy)-pyridin-3-yl]-2-aza-spiro[4.5]decan-1-one], for which the 50% inhibitory concentration (IC50) is 20 nM.

Take `C[C@H](Oc1ccc(N2CC[C@]3(CC[C@@](O)(COCC(F)(F)F)CC3)C2=O)cn1)C(F)(F)F` [Example 281, (5α,8α)-8-Hydroxy-8-(2,2,2-trifluoro-ethoxymethyl)-2-[6-((S)-2,2,2-trifluoro-1-methyl-ethoxy)-pyridin-3-yl]-2-aza-spiro[4.5]decan-1-one]: the half-inhibitory concentration (IC50) came out at 10 nM.

With `CC(C)[C@]1(O)CC[C@@]2(CCN(c3ccc(O[C@H](C)C(F)(F)F)nc3)C2=O)CC1` [Example 151, (5α,8β)-8-Hydroxy-8-isopropyl-2-[6-((R)-2,2,2-trifluoro-1-methyl-ethoxy)pyridin-3-yl]-2-aza-spiro[4.5]decan-1-one], the concentration for half-maximal inhibition (IC50) was 1850 nM.

Regarding `CC(O)C1CCC2(CC1)CCN(c1ccc(C(C)(C)C)cc1)C2=O` (stereo not drawn) [Example 357, (5α,8β)-2-(4-tert-Butyl-phenyl)-8-(1-hydroxy-ethyl)-2-aza-spiro[4.5]decan-1-one], the IC50 was determined as 50 nM.

Consider `O=C1N(c2ccc(OCCC(F)(F)F)cc2)CC[C@]12CC[C@@H](O)CC2` [Example 98, (5α,8β)-8-Hydroxy-2-[4-(3,3,3-trifluoro-propoxy)-phenyl]-2-aza-spiro[4.5]decan-1-one], for which the IC50 was found to be 2500 nM.

For `O=C1N(c2ccc(C3CC(F)(F)C3)cc2)CC[C@]12CC[C@@](O)(C(F)(F)F)CC2` [Example 340, (5α,8α)-2-[4-(3,3-Difluoro-cyclobutyl)-phenyl]-8-hydroxy-8-trifluoromethyl-2-aza-spiro[4.5]decan-1-one], the IC50 amounted to 40 nM.

With `CC(C)COC[C@]1(O)CC[C@]2(CCN(c3ccc(OCC(F)(F)F)cc3)C2=O)CC1` [Example 246, (5α,8α)-8-Hydroxy-8-isobutoxymethyl-2-[4-(2,2,2-trifluoro-ethoxy)-phenyl]-2-aza-spiro[4.5]decan-1-one], the IC50 was 640 nM.

`COC[C@]1(O)CC[C@]2(CCN(c3ccc(C(F)(F)F)cc3)C2=O)CC1` [Example 121, (5α,8α)-8-Hydroxy-8-methoxymethyl-2-(4-trifluoromethyl-phenyl)-2-aza-spiro[4.5]decan-1-one]: the concentration for half-maximal inhibition (IC50) is 100 nM.

Turning to `CO[C@H](c1ccc(N2CC[C@]3(CC[C@@](O)(C(C)C)CC3)C2=O)cc1)C(F)(F)F` [Example 137, (5α,8α)-8-Hydroxy-8-isopropyl-2-(4-((R)-2,2,2-trifluoro-1-methoxyethyl)phenyl)-2-aza-spiro[4.5]decan-1-one], the concentration for half-maximal inhibition (IC50) is 10 nM.

As to `CCCNC(=O)O[C@H]1CC[C@@]2(CCN(c3ccc(OC(F)(F)F)cc3)C2=O)CC1` [Example 11, Propyl-carbamic acid [(5α,8β)-1-oxo-2-(4-trifluoromethoxy-phenyl)-2-aza-spiro[4.5]dec-8-yl]ester], the concentration for half-maximal inhibition (IC50) was found to be 40 nM.

As for `CC(C)(C)c1ccc(N2CC[C@]3(CC[C@@](O)(COc4cccnc4)CC3)C2=O)cc1` [Example 354, (5α,8α)-2-(4-tert-Butyl-phenyl)-8-hydroxy-8-(pyridin-3-yloxymethyl)-2-aza-spiro[4.5]decan-1-one], the IC50 is 50 nM.

Regarding `COCCc1ccc(N2CC[C@]3(CC[C@@](O)(CC(C)(C)C)CC3)C2=O)cc1` [Example 126, (5α,8α)-8-(2,2-Dimethyl-propyl)-8-hydroxy-2-[4-(2-methoxy-ethyl)-phenyl]-2-aza-spiro[4.5]decan-1-one], the IC50 is 10 nM.

`O=C1N(c2ccc(OCC(F)(F)F)cc2)CC[C@]12CC[C@@](O)(COc1ccccc1)CC2` [Example 240, (5α,8α)-8-Hydroxy-8-phenoxymethyl-2-[4-(2,2,2-trifluoro-ethoxy)-phenyl]-2-aza-spiro[4.5]decan-1-one]: the half-inhibitory concentration (IC50) stood at 20 nM.

In the case of `CCC[C@]1(O)CC[C@]2(CCN(c3ccc(OS(=O)(=O)C4CC4)cc3)C2=O)CC1` [Example 182, 4-((5α,8α)-8-hydroxy-1-oxo-8-propyl-2-aza-spiro[4.5]decan-2-yl)phenyl cyclopropanesulfonate], the IC50 worked out at 30 nM.

`C[C@@H](Oc1ccc(N2CC[C@]3(CC[C@@](O)(C4CC4)CC3)C2=O)cc1)C(F)(F)F` [Example 181a, (5α,8α)-8-Cyclopropyl-8-hydroxy-2-[4-((R)-2,2,2-trifluoro-1-methyl-ethoxy)-phenyl]-2-aza-spiro[4.5]decan-1-one]: the 50% inhibitory concentration (IC50) was 20 nM.

Take `O=C1N(c2ccc([C@@H](O)C(F)(F)F)cc2)CC[C@]12CC[C@@](O)(C1CC1)CC2` [Example 201, (5α,8α)-8-cyclopropyl-8-hydroxy-2-(4-((R)-2,2,2-trifluoro-1-hydroxyethyl)phenyl)-2-aza-spiro[4.5]decan-1-one]: the half-maximal inhibitory concentration (IC50) was found to be 50 nM.

Regarding `Cc1cc(C[C@]2(O)CC[C@@]3(CCN(c4ccc(OC(C)C)cc4)C3=O)CC2)no1` [Example 221, (5α,8β)-8-hydroxy-2-(4-isopropoxyphenyl)-8-((5-methylisoxazol-3-yl)methyl)-2-aza-spiro[4.5]decan-1-one], the IC50 was 1160 nM.

As to `CCC[C@]1(O)CC[C@]2(CCN(c3ccc(CCC(F)(F)F)cc3)C2=O)CC1` [Example 170, (5α,8α)-8-Hydroxy-8-propyl-2-[4-(3,3,3-trifluoro-propyl)-phenyl]-2-aza-spiro[4.5]decan-1-one], the 50% inhibitory concentration (IC50) came to 50 nM.

As for `COC[C@]1(O)CC[C@]2(CCN(c3ccc(CC(F)(F)F)cc3)C2=O)CC1` [Example 154, (5α,8α)-8-Hydroxy-8-methoxymethyl-2-[4-(2,2,2-trifluoro-ethyl)-phenyl]-2-aza-spiro[4.5]decan-1-one], the IC50 stood at 30 nM.

Regarding `CCCc1ccc(N2CC[C@]3(CC[C@](O)(CC)CC3)C2=O)cc1` [Example 84, (5α,8β)-8-Ethyl-8-hydroxy-2-(4-propyl-phenyl)-2-aza-spiro[4.5]decan-1-one], the IC50 is 4300 nM.

Take `C[C@@H](Oc1ccc(N2CC[C@]3(CC[C@@](O)(C4CC4)CC3)C2=O)cn1)C(F)(F)F` [Example 179, (5α,8α)-8-Cyclopropyl-8-hydroxy-2-[6-((R)-2,2,2-trifluoro-1-methyl-ethoxy)-pyridin-3-yl]-2-aza-spiro[4.5]decan-1-one]: the 50% inhibitory concentration (IC50) was 30 nM.

Regarding `CN(C)C(=O)C[C@]1(O)CC[C@]2(CCN(c3ccc(OCC(F)(F)F)cc3)C2=O)CC1` [Example 157, 2-((5α,8α)-8-Hydroxy-1-oxo-2-(4-(2,2,2-trifluoroethoxy)phenyl)-2-aza-spiro[4.5]decan-8-yl)-N,N-dimethylacetamide], the IC50 is 250 nM.

On to `O=C1N(c2ccc(OCC(F)(F)F)nc2)CC[C@]12CC[C@@](O)(C(F)(F)F)CC2` [Example 178, (5α,8α)-8-Hydroxy-2-[6-(2,2,2-trifluoro-ethoxy)-pyridin-3-yl]-8-trifluoromethyl-2-aza-spiro[4.5]decan-1-one], for which the IC50 stood at 150 nM.

In the case of `COCC[C@]1(O)CC[C@]2(CCN(c3ccc(OC(F)(F)F)cc3)C2=O)CC1` [Example 119, (5α,8α)-8-Hydroxy-8-(2-methoxy-ethyl)-2-(4-trifluoromethoxy-phenyl)-2-aza-spiro[4.5]decan-1-one], the IC50 was 30 nM.

As to `COC[C@]1(O)CC[C@]2(CCN(c3ccc(C4CC(F)(F)C4)cc3)C2=O)CC1` [Example 342, (5α,8α)-2-[4-(3,3-Difluoro-cyclobutyl)-phenyl]-8-hydroxy-8-methoxymethyl-2-aza-spiro[4.5]decan-1-one], the IC50 is 30 nM.

Regarding `CCc1ccc(N2CC[C@]3(CC[C@@](O)(COCCOC)CC3)C2=O)cc1` [Example 229, (5α,8α)-2-(4-Ethyl-phenyl)-8-hydroxy-8-(2-methoxy-ethoxymethyl)-2-aza-spiro[4.5]decan-1-one], the IC50 turned out to be 130 nM.
